The text below walks through data of patent US9242978B2, “Phenylacetamide compound and pharmaceutical containing same” (KOWA COMPANY, LTD., priority 2012, dated 2016).

Data set [1] relates to normal mice (C57BL/6j mice). Briefly: Oral glucose tolerance test with normal mice after single administration of test compound. It is filed as in vivo. To be noted: 30 mg/kg oral, 2 g/kg glucose oral 30 minutes later, FIG. 1. Here is the method: The test compound (Example 5) (30 mg/kg) suspended in 10%(v/v) Gelucire44/14 (GATTEFOSSE) was orally administered to normal mice (C57BL/6j mice, CLEA Japan, Inc.). Thirty minutes later, 2 g/kg glucose was orally administered to the mice. The blood glucose level was measured using an automatic blood glucose level measurement apparatus (Medisafe, TERUMO), before administration of the test compound, 25 minutes after administration of the test compound, and 15, 30, 60, and 120 minutes after administration of glucose. Thus, the action of the test compound to lower blood glucose level was evaluated.

The nature of data set [2]: Evaluation of organ selectivity (non-binding drug concentration in liver and pancreas after oral administration). The note with it: mice, 150 minutes after administration; for concentration at 150 min: C57BL/6j, mouse, dose 30 mg/kg. It is filed as in vivo, normal mice (C57BL/6j mice). The protocol: A test compound suspended in 10% (v/v) Gelucire 44/14 (GATTEFOSSE) was orally administered to normal mice (C57BL/6j mice, CLEA Japan, Inc.). The percentages of drugs that had not bound to proteins in the liver and the pancreas, which had been obtained by the in vitro test, were […] the total concentrations of the drugs in the liver and the pancreas obtained 150 minutes after administration of the drugs, so as to calculate the non-binding concentration of the drug in each case. The ratio of the non-binding concentration of the drug in the […] was calculated, and thus, liver selectivity was evaluated. As a comparative compound, PSN-GK1 described in non-patent document 11 (corresponding to Example 94 of patent document 2) was produced according to the method described in patent document 2, and the produced comparative compound was then evaluated in the same manner as described above (in the table, the comparative compound is indicated as PSN-GK1).

Test in data set [3]: as above
To be noted: mice, 150 minutes after administration. It counts as in vivo, normal mice (C57BL/6j mice).

Data set [4] deals with normal mice (C57BL/6j mice). As to the kind of experiment: Transition in blood glucose levels after single administration of test compound to normal mice. It counts as in vivo. To be noted: 30 mg/kg oral, 1, 2, 4 and 6 hours after administration, FIG. 2. Here is the method:
A test compound (30 mg/kg, Example 5) suspended in 10% (v/v) Gelucire 44/14 (GATTEFOSSE) was orally administered to normal mice (C57BL/6j mice, CLEA Japan, Inc.). The blood glucose level was measured using an automatic blood glucose level measurement apparatus (Medisafe, TERUMO), before administration of the test compound, and 1, 2, 4, and 6 hours after administration of the test compound. Thus, the hypoglycemic action of the test compound was evaluated.

In data set [5] the target is T1, GST-GK derived from human liver GK (Homo sapiens, UniProt P35557).
T1 construct: made in house; host or cells: Escherichia coli DH5α
T1 sequence (P35557 1-466 isoform P35557-2): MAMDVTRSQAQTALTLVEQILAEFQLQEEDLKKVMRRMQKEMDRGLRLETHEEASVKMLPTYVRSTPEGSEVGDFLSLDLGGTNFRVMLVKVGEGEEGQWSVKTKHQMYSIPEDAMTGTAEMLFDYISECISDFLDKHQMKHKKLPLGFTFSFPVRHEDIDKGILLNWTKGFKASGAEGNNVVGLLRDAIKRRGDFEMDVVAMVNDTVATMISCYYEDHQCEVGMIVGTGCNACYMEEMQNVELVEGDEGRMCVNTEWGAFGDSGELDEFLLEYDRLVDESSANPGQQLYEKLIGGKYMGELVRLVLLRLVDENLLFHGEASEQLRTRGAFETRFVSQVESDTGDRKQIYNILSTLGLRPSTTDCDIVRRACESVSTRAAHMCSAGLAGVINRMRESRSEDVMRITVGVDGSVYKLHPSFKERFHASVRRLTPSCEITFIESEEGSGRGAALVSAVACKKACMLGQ
Briefly: In vitro GK activating action measurement test. It counts as biochemical. The note with it: 10 min; test compound 1 μmol/L, glucose 2.5 mmol/L, 25° C.; read-out: GK activation rate (%). The source says:
cDNA (GenBank Accession No. NM_033507, human glucokinase, variant 2) encoding human liver-type GK polypeptide was cloned by performing a polymerase chain reaction (hereinafter referred to as “PCR”) using a human liver cDNA library (Human liver QUICK-Clone cDNA, TAKARA BIO INC.), and the thus cloned cDNA was then introduced into an expression vector (pGEX-3X, GE Healthcare Japan) for glutathione S transferase (hereinafter referred to as GST) fusion proteins. The resulting vector was introduced into Escherichia coli (Competent high DH5α, Toyobo Co., Ltd.), and the transformed Escherichia coli was then cultured at 37° C. Thereafter, Isopropyl β-D-1-thiogalactopyranoside (final concentration: 1 mmol/L, Sigma Aldrich Japan) was added to the culture, and the obtained mixture was then cultured at 30° C. for 3 hours. Thereafter, a cell mass was recovered. The recovered cell mass was subjected to freezing-and-thawing, and the resulting cell mass was then suspended in Triton-X that had been added in a final concentration of 1% to a phosphate buffer, followed by disintegration with an ultrasonic disintegrator. The homogenate was centrifuged at 33,200 rpm at 4° C. for 1 hour. Thereafter, the supernatant was recovered, and a GST-GK fusion protein was then purified using a glutathione column (GSTrap FF, GE Healthcare Japan). The obtained GST-GK fusion protein was divided into some portions each having a small volume, and the thus divided proteins were then preserved at −80° C.
A GK assay was carried out at 25° C. at a final incubation volume of 100 μL using a flat-bottom 96-well assay plate. An assay buffer comprised 25 mmol/L Hepes buffer (pH 7.1), 25 mmol/L KCl, 2.5 mmol/L or 10 mmol/L D-glucose, 5 mmol/L ATP, 1 mmol/L nicotinamide adenine dinucleotide phosphate (abbreviated as NADP), 2 mmol/L MgCl2, 1 mmol/L dithiothreitol (DTT), 2 units/mL glucose-6 phosphate dehydrogenase (G6PDH), and 1 μg/mL GST-GK derived from human liver GK. ATP, G6PDH, and NADP were purchased from Roche Diagnostics. […] The thus mixed solution was preincubated in an incubator in which the temperature was controlled at 25° C. for 15 minutes. Subsequently, the reaction was initiated by adding 10 μL of the GST-GK solution to the reaction mixture, resulting in a final concentration of 0.1 μg/mL. After initiation of the reaction, an increase in the optical concentration at 340 nm (OD340) was monitored with a microplate spectrophotometer (Varsamax, Molecular Devices Japan K. K.) every 10 seconds over an incubation period of 10 minutes. An inclination of the OD340 increase was defined as raw data. The GK activating rate was indicated as a numerical value obtained from the expression: (Inclination of OD340 increase by addition of the test compound)/(inclination of OD340 increase without addition of the test compound). The results of the GK activating rate obtained at a test compound concentration of 1 μmol/L under the condition of a glucose concentration of 2.5 mmol/L are shown in the following table 2.

Another data set has as its system normal mice. To be noted: low dose; non-patent document 11; cited from earlier work.

Like-named read-outs stand apart in the source and are kept apart here.

Regarding `CCNC(=O)N1CC[C@H](C[C@@H](C(=O)Nc2ncc(F)s2)c2ccc(S(=O)(=O)C3CC3)cc2)C1` [Example 5, (S)-3-((R)-2-(4-(cyclopropylsulfonyl)phenyl)-3-((5-fluorothiazol-2-yl)amino)-3-oxopropyl)-N-ethylpyrrolidine-1-carboxamide], the “blood glucose level in oral glucose tolerance test versus solvent alone” value in data set [1] is given as “lower than that of the mice orally administered with the solvent alone”. In addition, the concentration at 150 min in data set [2] (liver, read-out: Non-binding concentration (ng/mL) Liver) stood at 47 ng/mL; in data set [2] (pancreas, read-out: Non-binding concentration (ng/mL) Pancreas), 1.8 ng/mL. Moreover, in data set [3] (C57BL/6j, mouse, liver and pancreas, dose 30 mg/kg), the selectivity ratio at 150 min came out at 27. Further, in data set [4], the “blood glucose level after single administration versus solvent alone” value is given as “almost equal to the blood glucose level of the mice orally administered with the solvent alone”. In addition, the activity at 1 µM in data set [5] worked out at 561%.
Consider `O=C(Nc1ncc(F)s1)[C@H](CC1CCOCC1)c1ccc(S(=O)(=O)C2CC2)cc1` [PSN-GK1, reference compound], for which the “Non-binding concentration (ng/mL) Liver” value in data set [2] (dose 1 mg/kg) was determined as 0.56 ng/mL; in data set [2] (dose 3 mg/kg), 1.4 ng/mL; in data set [2] (dose 10 mg/kg), 7.4 ng/mL. The entries for the “Non-binding concentration (ng/mL) Pancreas” value in data set [2] (dose 1 mg/kg), in data set [2] (dose 3 mg/kg) and in data set [2] (dose 10 mg/kg) were 0.58 ng/mL, 1.7 ng/mL and 6.0 ng/mL, respectively. The “Selectivity Liver/pancreas” value in data set [2] (dose 3 mg/kg) is listed as 0.8; in data set [3] (dose 1 mg/kg) it was 1.0; in data set [3] (dose 10 mg/kg) it was 1.2. Moreover, the “hypoglycemic action on normal mice” value in the data set on normal mice was “has a hypoglycemic action on normal mice”.
